From US20240376411A1, “IMPROVED PERFUME COMPOSITIONS COMPRISING SULFUR-CONTAINING PRO-FRAGRANCE COMPOUNDS” (FIRMENICH SA, priority 2021, published 2024)

Key:
[1] = logP above 4 (octanol-water partition coefficient); conditions: Yes/No
[2] = Identification of perfumery raw materials that promote hydrogen sulfide formation (1:1 w/w mix, storage, smell); type: physicochemical; conditions: raw materials named in Example 2 as not promoting; test conditions not repeated there
Description: In other words, each of the perfumery raw materials being present in the perfume composition is capable of inducing a hydrogen sulfide smell when being mixed individually in a 1:1 (w/w) ratio with the sulfur-containing pro-fragrance compound and being stored for 2 weeks at 50° C. Preferably, a hydrogen sulfide smell is induced when being mixed in a 1:1 (w/w) ratio with 3-(dodecylthio)-1-(2,6,6-trimethylcyclohex-3-en-1-yl) butan-1-one (HaloScent® D) and stored for 2 weeks at 50° C. Preferably, the mixing is carried out in a 10 mL glass jar. The perfumery raw materials may be used as such or may be dissolved in a solvent, for example at a concentration of from 10% to 50%.
Perfumery raw materials that promote the formation of hydrogen sulfide from 3-(dodecylthio)-1-(2,6,6-trimethylcyclohex-3-en-1-yl) butan-1-one (HaloScent® D) have been identified by mixing individual perfumery raw materials with 3-(dodecylthio)-1-(2,6,6-trimethylcyclohex-3-en-1-yl) butan-1-one (HaloScent® D) in a 1:1 (w/w) ratio in a 10 mL glass jar and storing said mixture for 2 weeks at 50° C. In case a hydrogen sulfide smell (similar to rotten egg odor) could be perceived after 2 weeks, it has been concluded that the perfumery raw material promotes the formation of hydrogen sulfide from 3-(dodecylthio)-1-(2,6,6-trimethylcyclohex-3-en-1-yl) butan-1-one (HaloScent® D).

logP > 4 [1]	Molecule	promotion of formation of hydrogen sulfide from HaloScent® D [2]
Yes	3-methyl-4/5-cyclopentadecen-1-one	–
Yes	CC1(C)CCC[C@]2(C)[C@H]3CCO[C@]3(C)CC[C@@H]12 (racemic) [(3aRS,5aSR,9aSR,9bRS)-3a,6,6,9a-tetramethyldodecahydronaphtho[2,1-b]furan]	–
Yes	CCC(O)COC1CCCCC1C(C)(C)C (racemic) [(+/−)-1-(2-tert-butyl-1-cyclohexyloxy)-2-butanol]	–
No	Cc1ccc2c(c1)CC(C)(CO)C2 (racemic) [(+/−)-2,5-dimethyl-2,3-dihydro-1H-inden-2-yl)methanol]	–
Yes	CCC(=CCC1CC=C(C)C1(C)C)CO (racemic) [(+/−)-2-ethyl-4-(2,2,3-trimethyl-3-cyclopenten-1-yl)-2-buten-1-ol]	–
No	CC(CO)c1ccccc1 (racemic) [(+/−)-2-phenyl-1-propanol]	–
No	C=CC(C)(O)CCC=C(C)C (racemic) [(+/−)-3,7-dimethyl-1,6-octadien-3-ol]	–
–	CC(C)CCCC(C)CCO (racemic) [(+/−)-3,7-dimethyl-1-octanol]	do not promote the formation of hydrogen sulfide
No	CCC(C)(O)CCCC(C)C (racemic) [(+/−)-3,7-dimethyl-3-octanol]	–
No	CC1=CCC(C(C)(C)O)CC1 (racemic) [(+/−)-alpha-terpineol]	–
No	C=CC(C)CCCC(C)(C)O (racemic) [(+−)-2,6-dimethyl-7-octen-2-ol]	–
No	CCCCC[C@H]1C(=O)CC[C@@H]1CC(=O)OC (racemic) [methyl 2-((1RS,2RS)-3-oxo-2-pentylcyclopentyl)acetate]	–
–	CC1C(C)(C)C2=C(C(=O)CCC2)C1(C)C (stereo not shown) [1,1,2,3,3-pentamethyl-1,2,3,5,6,7-hexahydro-4H-inden-4-one]	do not promote the formation of hydrogen sulfide
–	CC(=O)OC(C)(C)Cc1ccccc1 [1,1-dimethyl-2-phenylethyl acetate]	do not promote the formation of hydrogen sulfide
–	CCCC(=O)OC(C)(C)Cc1ccccc1 [1,1-dimethyl-2-phenylethyl butanoate]	do not promote the formation of hydrogen sulfide
–	c1ccc(Oc2ccccc2)cc1 [1,1′-oxydibenzene]	do not promote the formation of hydrogen sulfide
–	O=C1CCCCCCCCCCCC(=O)OCCO1 [1,4-dioxacycloheptadecane-5,17-dione]	do not promote the formation of hydrogen sulfide
No	CC(=O)c1ccc2ccccc2c1 [1-(2-naphthyl)ethanone]	–
Yes	CC(=O)C1(C)CC2=C(CCCC2(C)C)CC1C (stereo not shown) [1-(octahydro-2,3,8,8-tetramethyl-2-naphtalenyl)-1-ethanone]	–
–	COc1ccc(C)cc1 [1-methoxy-4-methylbenzene]	do not promote the formation of hydrogen sulfide
–	C=C(OC(C)=O)c1ccccc1 [1-phenylvinyl acetate]	do not promote the formation of hydrogen sulfide
No	CCOc1ccc2ccccc2c1 [2-ethoxynaphthalene]	–
–	C=CCc1ccc(O)c(OC)c1 [2-methoxy-4-(2-propen-1-yl) phenol]	do not promote the formation of hydrogen sulfide
–	C/C=C/c1ccc(O)c(OC)c1 [2-methoxy-4-[(1E)-1-propen-1-yl]phenol]	do not promote the formation of hydrogen sulfide
–	CCCC(=O)OCC(C)CC (stereo not shown) [2-methylbutyl butyrate]	do not promote the formation of hydrogen sulfide

logP > 4 [1]	Molecule	promotion of formation of hydrogen sulfide from HaloScent® D [2]
No	OCCc1ccccc1 [2-phenylethanol]	–
–	CCCC(=O)OCCC(C)C [3-methylbutyl butyrate]	do not promote the formation of hydrogen sulfide
–	CC(=O)OC1CCC(C(C)(C)C)CC1 (stereo not shown) [4-(2-methyl-2-propanyl)cyclohexyl acetate]	do not promote the formation of hydrogen sulfide
No	CC(=O)CCc1ccc(O)cc1 [4-(4-hydroxyphenyl)-2-butanone]	–
–	CC(=O)O[C@@H]1CC2CC[C@]1(C)C2(C)C [(1R,2R)-1,7,7-trimethyl-bicyclo[2.2.1]hept-2-yl acetate]	do not promote the formation of hydrogen sulfide
–	COC(Cc1ccccc1)OC [(2,2-dimethoxyethyl)benzene]	do not promote the formation of hydrogen sulfide
–	CC/C=C\CCO [(3Z)-3-hexen-1-ol]	do not promote the formation of hydrogen sulfide
Yes	CC/C=C\CCOC(=O)c1ccccc1O [(3Z)-3-hexen-1-yl salicylate]	–
–	CC/C=C\CCOC(=O)OC [(3Z)-hex-3-en-1-yl methyl carbonate]	do not promote the formation of hydrogen sulfide
Yes	CC1=CC[C@H](/C=C/C(C)(C)C(C)O)C1(C)C (stereo partly drawn) [(4E)-3,3-dimethyl-5-[(1R)-2,2,3-trimethyl-3-cyclopenten-1-yl]-4-penten-2-ol]	–
Yes	CCC(=O)OCC(C)(C)O[C@@H](C)[C@@H]1CCCC(C)(C)C1 [(+)-2-{(1S)-1-[(1R)-3,3-dimethylcyclohexyl]ethoxy}-2-methylpropyl propionate]	–
–	CC/C=C\CCOC(C)=O [(Z)-3-hexenyl acetate]	do not promote the formation of hydrogen sulfide
No	CC(C)=CCC[C@@H](C)CC#N [(−)-(R)-3,7-dimethyl-6-octenenitrile]	–
–	CC(=O)c1ccccc1 [acetophenone]	do not promote the formation of hydrogen sulfide
Yes	C=CCOC(=O)CCC1CCCCC1 [allyl 3-cyclohexylpropanoate]	–
–	C=CCOC(=O)COC1CCCCC1 [allyl (cyclohexyloxy)acetate]	do not promote the formation of hydrogen sulfide
–	C=CCOC(=O)CCCCC [allyl hexanoate]	do not promote the formation of hydrogen sulfide
No	N#CC(=C1CCCCC1)c1ccccc1 [cyclohexylidene(phenyl)acetonitrile]	–
–	CCOC(=O)/C=C/c1ccccc1 [ethyl (E)-3-phenyl-2-propenoate]	do not promote the formation of hydrogen sulfide
–	CCCC(=O)OCC [ethyl butanoate]	do not promote the formation of hydrogen sulfide
–	CCCCCCOC(C)=O [hexyl acetate]	do not promote the formation of hydrogen sulfide
–	COC(=O)c1ccccc1O [methyl 2-hydroxybenzoate]	do not promote the formation of hydrogen sulfide
–	CC(=O)OC1CC2CC1C1CC=CC21 (stereo not shown) [tricyclo[5.2.1.02,6]dec-¾-en-8-yl acetate]	do not promote the formation of hydrogen sulfide
–	allyl(⅔-methylbutoxy)acetate	do not promote the formation of hydrogen sulfide
Yes	tricyclo[5.2.1.0^2,6]dec-3/4-en-8-yl propanoate	–

Molecule	logP > 4 [1]	promotion of formation of hydrogen sulfide from HaloScent® D [2]
C=CC(C)(CCC=C(C)C)OC(C)=O (racemic) [(+/−)-1,5-dimethyl-1-vinyl-4-hexenyl acetate]	Yes	–
c1ccc2[nH]ccc2c1 [Indole]	No	–
